From patent US11739098B2 (BRISTOL-MYERS SQUIBB COMPANY, priority 2017, dated 2023)

What was measured:
Format in all cases: cell-based
human TLR7 = biological target: T1, human TLR7 (Homo sapiens, UniProt Q9NYK1); assay: TLR7 inhibition reporter assay (HEK-Blue cells, SEAP reporter, gardiquimod stimulation); details: HEK-Blue cells overexpressing human TLR7, SEAP reporter, gardiquimod 7.5 μM
T1 construct: host or cells: HEK-Blue cells (HEK293-derived reporter line)
T1 sequence (Q9NYK1 27-1049): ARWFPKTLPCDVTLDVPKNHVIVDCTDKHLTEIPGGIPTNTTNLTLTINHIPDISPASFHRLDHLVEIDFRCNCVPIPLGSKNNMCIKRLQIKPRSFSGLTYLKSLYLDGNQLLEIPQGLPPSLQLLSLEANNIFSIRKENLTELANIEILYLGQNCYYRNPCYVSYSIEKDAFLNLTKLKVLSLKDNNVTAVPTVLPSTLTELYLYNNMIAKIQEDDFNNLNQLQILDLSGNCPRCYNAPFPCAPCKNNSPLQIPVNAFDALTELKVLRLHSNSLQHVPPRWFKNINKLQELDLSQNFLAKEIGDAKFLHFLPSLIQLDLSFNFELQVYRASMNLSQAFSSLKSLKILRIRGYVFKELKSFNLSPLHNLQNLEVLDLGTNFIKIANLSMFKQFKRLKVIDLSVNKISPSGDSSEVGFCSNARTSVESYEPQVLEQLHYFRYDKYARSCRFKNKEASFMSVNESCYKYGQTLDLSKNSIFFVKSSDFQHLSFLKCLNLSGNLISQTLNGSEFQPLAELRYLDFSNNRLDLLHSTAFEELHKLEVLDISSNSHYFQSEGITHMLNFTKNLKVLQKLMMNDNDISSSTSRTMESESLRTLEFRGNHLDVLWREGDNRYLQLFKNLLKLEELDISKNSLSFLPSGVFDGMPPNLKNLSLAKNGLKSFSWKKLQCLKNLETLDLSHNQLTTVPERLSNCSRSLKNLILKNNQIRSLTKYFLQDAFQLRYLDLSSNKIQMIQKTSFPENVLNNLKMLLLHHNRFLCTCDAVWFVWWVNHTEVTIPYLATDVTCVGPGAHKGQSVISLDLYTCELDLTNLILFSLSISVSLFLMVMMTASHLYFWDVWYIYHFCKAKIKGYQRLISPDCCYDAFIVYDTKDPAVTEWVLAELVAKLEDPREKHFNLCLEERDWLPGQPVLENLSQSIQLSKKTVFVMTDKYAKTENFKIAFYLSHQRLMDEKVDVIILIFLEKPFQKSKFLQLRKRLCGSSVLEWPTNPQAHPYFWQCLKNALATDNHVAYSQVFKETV
Method in brief: (§1)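 HEK-Blue cells overexpressing the receptor, with NF-κB/AP-1-driven SEAP, were pre-treated 30 min at room temperature with compound (0.05 nM–50 μM), then stimulated with gardiquimod 7.5 μM (TLR7), R848 15.9 μM (TLR8) or ODN2006 5 nM (TLR9). SEAP was read after 22 h at 37 °C as percent inhibition.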

human TLR8 = biological target: T2, human TLR8 (Homo sapiens, UniProt Q9NR97); assay: TLR8 inhibition reporter assay (HEK-Blue cells, SEAP reporter, R848 stimulation); details: HEK-Blue cells overexpressing human TLR8, SEAP reporter, R848 15.9 μM
T2 construct: host or cells: HEK-Blue cells (HEK293-derived reporter line)
T2 sequence (Q9NR97 27-1041): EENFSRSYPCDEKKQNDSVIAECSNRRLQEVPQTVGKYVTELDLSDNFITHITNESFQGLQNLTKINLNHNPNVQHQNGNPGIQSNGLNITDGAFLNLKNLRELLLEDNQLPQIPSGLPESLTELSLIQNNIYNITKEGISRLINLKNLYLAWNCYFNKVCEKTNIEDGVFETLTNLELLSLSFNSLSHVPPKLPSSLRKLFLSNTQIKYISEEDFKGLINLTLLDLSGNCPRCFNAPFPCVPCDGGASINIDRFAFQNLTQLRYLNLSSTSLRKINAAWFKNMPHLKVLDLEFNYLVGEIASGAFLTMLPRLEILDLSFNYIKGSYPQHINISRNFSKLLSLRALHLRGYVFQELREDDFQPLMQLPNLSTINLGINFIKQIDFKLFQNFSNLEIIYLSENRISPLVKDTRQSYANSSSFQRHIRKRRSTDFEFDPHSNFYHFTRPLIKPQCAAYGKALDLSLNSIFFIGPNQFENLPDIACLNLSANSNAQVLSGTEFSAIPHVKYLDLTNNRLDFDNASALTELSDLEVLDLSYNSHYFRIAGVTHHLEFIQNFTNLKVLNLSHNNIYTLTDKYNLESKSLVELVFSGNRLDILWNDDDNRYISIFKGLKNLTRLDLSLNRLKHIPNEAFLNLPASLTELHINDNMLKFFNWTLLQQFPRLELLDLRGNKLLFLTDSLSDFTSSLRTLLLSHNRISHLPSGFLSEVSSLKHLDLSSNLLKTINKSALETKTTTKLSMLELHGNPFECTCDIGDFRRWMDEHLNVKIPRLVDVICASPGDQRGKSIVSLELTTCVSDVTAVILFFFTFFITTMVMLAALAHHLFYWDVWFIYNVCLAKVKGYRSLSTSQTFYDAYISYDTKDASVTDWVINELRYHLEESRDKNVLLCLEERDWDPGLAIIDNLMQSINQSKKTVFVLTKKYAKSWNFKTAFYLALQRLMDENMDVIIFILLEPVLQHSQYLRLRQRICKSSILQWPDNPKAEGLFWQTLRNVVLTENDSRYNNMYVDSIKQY
Method in brief: as §1

human TLR9 = biological target: T3, human TLR9 (Homo sapiens, UniProt Q9NR96); assay: TLR9 inhibition reporter assay (HEK-Blue cells, SEAP reporter, ODN2006 stimulation); details: HEK-Blue cells overexpressing human TLR9, SEAP reporter, ODN2006 5 nM
T3 construct: host or cells: HEK-Blue cells (HEK293-derived reporter line)
T3 sequence (Q9NR96 26-1032): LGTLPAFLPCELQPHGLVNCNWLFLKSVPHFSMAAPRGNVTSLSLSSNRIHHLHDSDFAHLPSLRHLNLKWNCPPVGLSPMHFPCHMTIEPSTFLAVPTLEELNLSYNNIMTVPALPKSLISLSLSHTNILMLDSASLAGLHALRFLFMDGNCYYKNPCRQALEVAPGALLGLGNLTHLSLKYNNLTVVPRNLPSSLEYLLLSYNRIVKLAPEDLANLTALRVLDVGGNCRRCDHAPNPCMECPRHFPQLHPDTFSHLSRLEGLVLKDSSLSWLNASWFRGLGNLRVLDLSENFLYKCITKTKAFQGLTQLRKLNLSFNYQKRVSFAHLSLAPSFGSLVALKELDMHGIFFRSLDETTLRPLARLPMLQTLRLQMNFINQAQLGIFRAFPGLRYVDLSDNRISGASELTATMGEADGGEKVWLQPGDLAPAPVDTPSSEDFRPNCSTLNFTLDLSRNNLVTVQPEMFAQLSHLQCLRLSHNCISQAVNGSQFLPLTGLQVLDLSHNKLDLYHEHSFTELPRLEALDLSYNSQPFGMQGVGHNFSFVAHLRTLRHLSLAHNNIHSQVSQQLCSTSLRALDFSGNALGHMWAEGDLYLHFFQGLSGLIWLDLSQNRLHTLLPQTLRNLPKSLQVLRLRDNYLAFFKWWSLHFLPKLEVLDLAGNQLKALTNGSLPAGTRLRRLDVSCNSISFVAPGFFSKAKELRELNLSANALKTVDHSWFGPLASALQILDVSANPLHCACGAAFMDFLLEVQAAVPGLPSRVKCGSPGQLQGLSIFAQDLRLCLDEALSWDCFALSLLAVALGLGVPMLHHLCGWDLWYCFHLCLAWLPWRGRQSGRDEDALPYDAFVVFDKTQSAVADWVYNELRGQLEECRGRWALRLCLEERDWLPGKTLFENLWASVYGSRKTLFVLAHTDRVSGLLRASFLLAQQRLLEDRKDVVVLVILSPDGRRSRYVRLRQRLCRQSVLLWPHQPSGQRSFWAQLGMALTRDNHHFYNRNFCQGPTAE
Method in brief: as §1

Compound	IC50 (human TLR7) [nM]	IC50 (human TLR8) [nM]	IC50 (human TLR9) [nM]
CC(C)c1c(-c2ccnc3[nH]ncc23)[nH]c2ccc(C3CCN(C(=O)C[C@H](C)N)CC3)cc12 [Example 637, (S)-3-amino-1-(4-(3-isopropyl-2-(1H-pyrazolo[3,4-b]pyridin-4-yl)-1H-indol-5-yl)piperidin-1-yl)butan-1-one]	< 100	< 100	1000 to 50000
CC(C)c1c(-c2ccn3nccc3c2)[nH]c2ccc(C3CCN(CC(=O)N(C)C)CC3)cc12 [Example 441, 2-(4-(3-isopropyl-2-(pyrazolo[1,5-a]pyridin-5-yl)-1H-indol-5-yl)piperidin-1-yl)-N,N-dimethylacetamide]	< 100	< 100	1000 to 50000
CCc1c(-c2ccnc3c(N)noc23)[nH]c2ccc(C3CCNCC3)cc12 [Example 239, 7-(3-ethyl-5-(piperidin-4-yl)-1H-indol-2-yl)isoxazolo[4,5-b]pyridin-3-amine]	1000 to 50000	100 to 1000	100 to 1000
CCOc1cc(-c2[nH]c3ccc(C4CCN(CC(=O)NC)CC4)cc3c2C(C)C)cc2nc(C)nn12 [Example 349, 2-(4-(2-(5-ethoxy-2-methyl-[1,2,4]triazolo[1,5-a]pyridin-7-yl)-3-isopropyl-1H-indol-5-yl)piperidin-1-yl)-N-methylacetamide]	< 100	< 100	1000 to 50000
Cc1nc2c(-c3[nH]c4ccc(C5CCN(C(=O)C[C@H](C)O)CC5)cc4c3C(C)C)ccc(C)n2n1 [Example 598, (S)-1-(4-(2-(2,5-dimethyl-[1,2,4]triazolo[1,5-a]pyridin-8-yl)-3-isopropyl-1H-indol-5-yl)piperidin-1-yl)-3-hydroxybutan-1-one]	> 3130	1000 to 50000	> 50000
Cc1cc(-c2[nH]c3ccc(C4CCN(C5CCS(=O)(=O)CC5)CC4)cc3c2C(C)C)cc2cnnn12 [Example 794, 4-(4-(3-isopropyl-2-(7-methyl-[1,2,3]triazolo[1,5-a]pyridin-5-yl)-1H-indol-5-yl)piperidin-1-yl)tetrahydro-2H-thiopyran 1,1-dioxide]	< 100	< 100	1000 to 50000
Cc1cc(-c2[nH]c3ccc(C4CCN(CC(N)=O)CC4)cc3c2C(C)C)cn2nnnc12 [Example 311, 2-(4-(3-isopropyl-2-(8-methyltetrazolo[1,5-a]pyridin-6-yl)-1H-indol-5-yl)piperidin-1-yl) acetamide]	< 100	< 100	1000 to 50000
CC(C)c1c(-c2cccn3ncnc23)[nH]c2ccc(C3CCNCC3)cc12 [Example 196, 8-(3-isopropyl-5-(piperidin-4-yl)-1H-indol-2-yl)-[1,2,4]triazolo[1,5-a]pyridine]	< 100	< 100	1000 to 50000
CC(C)c1c(-c2cc(C(C)(C)O)c3nccn3c2)[nH]c2ccc(C3CCN(C(=O)CN(C)C)CC3)cc12 [Example 493, 2-(dimethylamino)-1-(4-(2-(8-(2-hydroxypropan-2-yl)imidazo[1,2-a]pyridin-6-yl)-3-isopropyl-1H-indol-5-yl)piperidin-1-yl) ethan-1-one]	< 100	1000 to 50000	100 to 1000
CC(C)c1c(-c2cc(C(F)(F)F)c3nccn3c2)[nH]c2ccc(C3CCN(C(=O)CN(C)C)CC3)cc12 [Example 507, 2-(dimethylamino)-1-(4-(3-isopropyl-2-(8-(trifluoromethyl)imidazo[1,2-a]pyridin-6-yl)-1H-indol-5-yl)piperidin-1-yl)ethan-1-one]	< 100	< 100	100 to 1000
CC(C)c1c(-c2n[nH]c3ncccc23)[nH]c2ccc(C3CCNCC3)cc12 [Example 18, 3-(3-isopropyl-5-(piperidin-4-yl)-1H-indol-2-yl)-1H-pyrazolo[3,4-b]pyridine]	< 100	< 100	1000 to 50000
CCc1c(-c2ccn3ncnc3c2)[nH]c2ccc(C3CCNCC3)cc12 [Example 198, 7-(3-ethyl-5-(piperidin-4-yl)-1H-indol-2-yl)-[1,2,4]triazolo[1,5-a]pyridine]	< 100	100 to 1000	1000 to 50000
CC(C)c1c(-c2cnc3cnccn23)[nH]c2ccc(C3CCNCC3)cc12 [Example 194, 3-(3-isopropyl-5-(piperidin-4-yl)-1H-indol-2-yl)imidazo[1,2-a]pyrazine]	1000 to 50000	1000 to 50000	100 to 1000
CC(C)c1c(-c2ccn3nncc3c2)[nH]c2ccc(C3CCN(C4CCOCC4)CC3)cc12 [Example 696, 5-(3-isopropyl-5-(1-(tetrahydro-2H-pyran-4-yl)piperidin-4-yl)-1H-indol-2-yl)-[1,2,3]triazolo[1,5-a]pyridine]	< 100	100 to 1000	1000 to 50000
